The source of these data is US11007191B2, “Pharmaceutical compositions and dosage forms” (IGNYTA, INC., priority 2017, dated 2021).

As usually defined, the solubility is the dissolved amount per volume that the medium holds.

Data set [1] can be described thus: solubility in solvents for fluid bed coating. It is filed as physicochemical. The procedure: The solutions included 80/20 acetone/water, 95/5 acetone/water, 90/10 acetone/water, methyl ethyl ketone, acetone and methanol at 40° C. […] The lab temperature was monitored and ranged from 17° C. to 25° C., fluctuating with time of day during testing.
Data set [2] relates to various forms of cancer having at least one molecular alteration in one or more of ALK, ROS1, TrkA, TrkB and TrkC. The conditions noted are these: early clinical studies, patients with alteration in ALK; cited from earlier work.
A short description of data set [3]: single-dose food effect study in dogs. It is filed as in vivo, dog. The conditions noted are these: formulation that did not comprise at least one polymer. From the text:
Such food effects can cause difficulty during human testing of drugs as the fed or fasted condition of the patient can cause exposure or bioavailability of drugs to vary widely.

Data set [4] can be described thus: amorphous solubility in pH 6.5 PBS containing 0.5% SIF. The conditions noted are these: phosphate buffered saline with 0.5% SIF powder, fassif; pH 6.5 PBS containing 0.5% SIF powder; read-out: approximate amorphous solubility. The data set is classed as physicochemical.
Another data set has as its target TrkC (Homo sapiens, UniProt Q16288). The conditions noted are these: background statement; cited from earlier work.
In a further data set the target is TrkB (Homo sapiens, UniProt Q16620). The conditions noted are these: background statement; cited from earlier work.
Data set [5] concerns the target anaplastic lymphoma kinase (ALK) (Homo sapiens, UniProt Q9UM73). The conditions noted are these: background statement; cited from earlier work.
Data set [6] can be described thus: gastric-to-intestinal (GB/IB) two-stage dissolution test. The conditions noted are these: Example 5, GB stage, 75 mL 0.01M HCl, 100 mg nominal dose. It is filed as physicochemical.
Method: A two-stage dissolution test was also conducted on all four coating weights to determine if gastric exposure affected performance.
Gastric-to-intestinal (GB-IB) non-sink dissolution test: The formulation having a 50% theoretical coating weight was tested in a GB-IB non-sink dissolution test as described in the table below:
Data set [7] is described as follows: non-sink dissolution in pH 6.5 PBS with 0.5% SIF, USP Apparatus II. It is filed as physicochemical. The conditions noted are these: Example 5; 1 mg/mL in PBS pH 6.5 with 0.5% SIF, 37° C., 250 rpm. As to the method:
The performance of all four coating weights was evaluated by dissolution in pH 6.5 phosphate buffered saline (PBS) containing 0.5% SIF powder.

Converted amounts (≈) assume the structure as drawn.

Chain of TrkB (Q16620 32-822): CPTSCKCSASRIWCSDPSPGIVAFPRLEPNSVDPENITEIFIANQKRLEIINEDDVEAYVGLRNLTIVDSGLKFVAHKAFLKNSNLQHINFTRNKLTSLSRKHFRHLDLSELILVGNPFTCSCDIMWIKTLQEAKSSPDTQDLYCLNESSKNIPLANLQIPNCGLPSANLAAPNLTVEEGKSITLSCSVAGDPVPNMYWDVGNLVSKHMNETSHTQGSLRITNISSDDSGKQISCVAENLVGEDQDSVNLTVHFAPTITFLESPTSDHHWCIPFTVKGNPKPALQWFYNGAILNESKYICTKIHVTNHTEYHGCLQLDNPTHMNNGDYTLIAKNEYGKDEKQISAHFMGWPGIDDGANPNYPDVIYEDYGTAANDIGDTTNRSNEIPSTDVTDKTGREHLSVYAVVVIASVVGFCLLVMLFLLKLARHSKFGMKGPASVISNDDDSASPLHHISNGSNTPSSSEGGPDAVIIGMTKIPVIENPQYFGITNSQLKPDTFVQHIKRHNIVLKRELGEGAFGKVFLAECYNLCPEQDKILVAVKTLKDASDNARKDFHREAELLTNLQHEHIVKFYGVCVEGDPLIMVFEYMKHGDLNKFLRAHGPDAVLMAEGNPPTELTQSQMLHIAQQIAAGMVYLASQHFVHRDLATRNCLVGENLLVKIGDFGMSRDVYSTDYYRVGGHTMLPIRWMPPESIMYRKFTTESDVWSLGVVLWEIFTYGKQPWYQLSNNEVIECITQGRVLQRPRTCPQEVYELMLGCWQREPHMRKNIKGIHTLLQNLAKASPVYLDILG
Chain of TrkC (Q16288 32-839): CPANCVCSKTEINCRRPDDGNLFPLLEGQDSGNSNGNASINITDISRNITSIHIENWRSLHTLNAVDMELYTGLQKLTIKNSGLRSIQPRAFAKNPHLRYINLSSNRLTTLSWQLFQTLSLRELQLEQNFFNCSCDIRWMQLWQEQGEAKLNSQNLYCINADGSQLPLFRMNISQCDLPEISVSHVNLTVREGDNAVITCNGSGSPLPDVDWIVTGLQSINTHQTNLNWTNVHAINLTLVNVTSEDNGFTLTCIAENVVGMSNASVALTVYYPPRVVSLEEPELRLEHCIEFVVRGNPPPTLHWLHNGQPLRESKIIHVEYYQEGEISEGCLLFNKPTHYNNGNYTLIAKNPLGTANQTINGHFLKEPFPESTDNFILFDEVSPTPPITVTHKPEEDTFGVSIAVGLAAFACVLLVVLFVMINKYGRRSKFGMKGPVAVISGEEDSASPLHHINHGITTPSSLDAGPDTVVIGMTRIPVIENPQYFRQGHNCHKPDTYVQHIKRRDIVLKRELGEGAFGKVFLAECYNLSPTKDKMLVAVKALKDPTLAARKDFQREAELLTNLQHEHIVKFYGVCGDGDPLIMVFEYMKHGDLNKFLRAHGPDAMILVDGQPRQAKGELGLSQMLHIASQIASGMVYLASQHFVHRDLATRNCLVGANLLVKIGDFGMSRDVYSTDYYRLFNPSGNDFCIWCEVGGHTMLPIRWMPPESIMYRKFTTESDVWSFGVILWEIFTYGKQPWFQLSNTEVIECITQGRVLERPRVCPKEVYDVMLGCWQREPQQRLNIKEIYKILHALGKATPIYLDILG
Chain of anaplastic lymphoma kinase (ALK) (Q9UM73 19-1620): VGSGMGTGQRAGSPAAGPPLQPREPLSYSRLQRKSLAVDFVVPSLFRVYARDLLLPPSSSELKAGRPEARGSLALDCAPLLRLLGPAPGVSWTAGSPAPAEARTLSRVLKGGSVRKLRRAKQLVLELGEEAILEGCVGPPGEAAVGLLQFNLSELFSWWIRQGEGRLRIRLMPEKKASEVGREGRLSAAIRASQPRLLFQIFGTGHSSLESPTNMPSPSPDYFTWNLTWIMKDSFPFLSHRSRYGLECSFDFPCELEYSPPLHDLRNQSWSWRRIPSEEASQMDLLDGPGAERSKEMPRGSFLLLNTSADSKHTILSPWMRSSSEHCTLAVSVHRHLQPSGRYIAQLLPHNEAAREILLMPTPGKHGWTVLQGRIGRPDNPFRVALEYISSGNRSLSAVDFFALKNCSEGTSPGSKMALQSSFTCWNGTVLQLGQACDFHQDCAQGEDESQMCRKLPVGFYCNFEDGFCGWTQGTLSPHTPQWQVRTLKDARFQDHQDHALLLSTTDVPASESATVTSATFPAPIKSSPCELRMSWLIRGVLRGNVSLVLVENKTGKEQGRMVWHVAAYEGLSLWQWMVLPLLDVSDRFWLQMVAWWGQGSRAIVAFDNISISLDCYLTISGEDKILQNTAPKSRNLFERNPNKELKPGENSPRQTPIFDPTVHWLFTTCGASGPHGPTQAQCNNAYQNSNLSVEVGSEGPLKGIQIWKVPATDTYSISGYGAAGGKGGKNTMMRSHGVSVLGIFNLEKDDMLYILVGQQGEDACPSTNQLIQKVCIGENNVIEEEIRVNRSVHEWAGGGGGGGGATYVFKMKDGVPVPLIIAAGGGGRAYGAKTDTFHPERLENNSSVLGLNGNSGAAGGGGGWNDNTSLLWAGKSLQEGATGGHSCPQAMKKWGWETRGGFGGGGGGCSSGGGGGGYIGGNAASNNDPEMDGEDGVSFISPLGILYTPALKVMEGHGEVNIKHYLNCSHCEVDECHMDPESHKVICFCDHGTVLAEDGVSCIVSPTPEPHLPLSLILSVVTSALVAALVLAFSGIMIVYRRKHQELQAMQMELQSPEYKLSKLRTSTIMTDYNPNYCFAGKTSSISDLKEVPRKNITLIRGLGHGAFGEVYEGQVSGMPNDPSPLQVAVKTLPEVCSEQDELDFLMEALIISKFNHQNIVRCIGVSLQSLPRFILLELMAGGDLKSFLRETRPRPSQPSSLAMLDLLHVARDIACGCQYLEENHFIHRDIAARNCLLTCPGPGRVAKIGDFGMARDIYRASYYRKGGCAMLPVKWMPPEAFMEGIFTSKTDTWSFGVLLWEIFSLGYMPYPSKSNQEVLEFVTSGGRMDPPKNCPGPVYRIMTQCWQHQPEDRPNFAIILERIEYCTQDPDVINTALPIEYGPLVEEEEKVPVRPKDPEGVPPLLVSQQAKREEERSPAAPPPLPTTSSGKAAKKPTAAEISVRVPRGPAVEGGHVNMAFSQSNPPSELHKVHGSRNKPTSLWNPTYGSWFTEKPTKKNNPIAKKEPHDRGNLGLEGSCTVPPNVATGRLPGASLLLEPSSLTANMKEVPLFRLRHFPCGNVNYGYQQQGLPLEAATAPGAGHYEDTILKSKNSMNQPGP

Turning to `CN1CCN(c2ccc(C(=O)Nc3n[nH]c4ccc(Cc5cc(F)cc(F)c5)cc34)c(NC3CCOCC3)c2)CC1` [N-[5-(3,5-difluorobenzyl)-1H-indazol-3-yl]-4-(4-methyl-piperazin-1-yl)-2-(tetrahydro-2H-pyran-4-ylamino)-benzamide], in [1] (80/20, 95/5, 90/10 acetone/water, for 24 hours, lab temperature 17-25° C.), the “solubility in acetone/water solutions” value is “greater than mg/mL”. In data set [1] (approximately 170 mg per mL of solvent), the “time until completely dissolved in acetone/water solutions” value was no more than 30 min. For the same compound, the “antitumor effects in patients” value in data set [2] is given as “antitumor effects”. In addition, in data set [3], the “exposure levels under fed conditions compared to fasting conditions” value is “approximately 2 fold”. Also, the solubility in data set [4] is roughly 1000 µg/mL (≈ 1780 µM). Also, the “inhibition of TrkC” value on TrkC is given as “potent inhibitor”. On TrkB, the “inhibition of TrkB” value is reported as “potent inhibitor”. The “inhibition of ALK” value in data set [5] was “potent inhibitor”.

As for `CN1CCN(c2ccc(C(=O)Nc3n[nH]c4ccc(Cc5cc(F)cc(F)c5)cc34)c(NC3CCOCC3)c2)CC1` [API, N-[5-(3,5-difluorobenzyl)-1H-indazol-3-yl]-4-(4-methyl-piperazin-1-yl)-2-(tetrahydro-2H-pyran-4-ylamino)-benzamide], the “dose reached in the pH 2.0 media” value in [6] was “full dose”. In addition, the “dose released within about 75 minutes” value in data set [7] was “about 15%”.
